In PMC9037210, “Novel 3-(6-methylpyridin-2-yl)coumarin-based chalcones as selective inhibitors of cancer-related carbonic anhydrases IX and XII endowed with anti-proliferative activity” (Journal of Enzyme Inhibition and Medicinal Chemistry, 2022):

How the values were obtained:
OVCAR-5 = experiment: NCI single (10 µM) dose SRB screening, OVCAR-5; format: cell-based, human; conditions: 10 µM single dose, OVCAR-5, Ovarian cancer
Protocol: (§1) Following NCI protocol, sixteen MPCs were screened for their potential in vitro anticancer effects against human 59 cancer cell panels including prostate, leukaemia melanoma, colon, breast, CNS, renal, NSCLC, and ovarian cancers by National Cancer Institute (USA)[30].
(§2) The antiproliferative activities of MPC 3 and MPCs 5a–o were first evaluated in a 10 µM dose assay, with SRB assay used to determine cell survival and proliferation. […] The results of the cell growth inhibitory activities for MPCs 5g and 5l towards the different treated tumour cell lines were presented as GI% and presented in Table 3.
(§3) The anticancer test was conducted using the methods of the Drug Evaluation Branch, National Cancer Institute, Bethesda, MD, using 59 human tumour cell lines derived from nine human tissues. The GI50, TGI, and LC50 dose-response parameters were calculated for each medication.

hCA XII = target: T1, hCA XII (Homo sapiens, UniProt O43570); experiment: stopped-flow CO2 hydrase assay, hCA XII; format: biochemical; conditions: for Selectivity index (SI) (KI off-target CA/KI target CA) Towards hCA XII: ratio of KI for hCA I and II relative to hCA XII; for Ki: stopped-flow, incubation time of 6 h, mean of three assays, read-out: KI CA XII
T1 construct: made in house
T1 sequence (O43570 25-354): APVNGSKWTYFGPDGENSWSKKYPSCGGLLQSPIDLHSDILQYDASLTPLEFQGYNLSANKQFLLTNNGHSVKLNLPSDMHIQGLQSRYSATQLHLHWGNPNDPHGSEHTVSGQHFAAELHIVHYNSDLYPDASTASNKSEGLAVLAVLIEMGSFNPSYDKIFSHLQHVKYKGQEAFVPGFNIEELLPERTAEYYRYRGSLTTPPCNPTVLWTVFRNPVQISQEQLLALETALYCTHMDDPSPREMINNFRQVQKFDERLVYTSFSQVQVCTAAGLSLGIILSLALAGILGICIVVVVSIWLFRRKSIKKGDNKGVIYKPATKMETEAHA
Protocol: The newly synthesised MPCs (3 and 5a–o) were assessed for their CA inhibition activity employing the stopped-flow CO2 hydrase assay[29] for constitutional hCA (I/II) isoforms and cancer-linked hCA (IX/XII) isoforms.
The CA inhibition activity for the herein reported MPC derivatives was evaluated against the hCA isoforms I, II, IX, and XII using stopped-flow CO2 hydrase test[7]^,[33–36] (see the Supplementary Material).
Carbonic anhydrase inhibition assay
The carbonic anhydrase catalyzed CO2 hydration actions for all coumarin-based […]
Photophysics stopped-flow. The enzymes are recombinant proteins prepared in our lab. Phenol red (at a concentration of 0.2 mM) has been used as indicator, working at […]
mM Na2SO4 (for maintaining constant the ionic strength), following the initial rates of the CA-catalyzed CO2 hydration reaction for a period of 10-100 s. The CO2 concentrations ranged from 1.7 to 17 mM for the determination of the kinetic parameters and inhibition constants. For each inhibitor at least six traces of the initial 5-10% of the reaction have been used for determining the initial velocity. The uncatalyzed rates were determined in the same manner and subtracted from the total observed rates. Stock solutions of inhibitor (0.1 mM) were prepared in distilled-deionized water and dilutions up to 0.01 nM were done thereafter with the assay buffer. Inhibitor and enzyme solutions were preincubated together for 6 hrs. at room temperature prior to assay, in order to allow for the formation of the E-I complex. The inhibition constants were obtained by non-linear least-squares methods using PRISM 3 and the Cheng-Prusoff equation, and represent the mean from at least three different

HOP-92 [1] = experiment: NCI single (10 µM) dose SRB screening, HOP-92; format: cell-based, human; conditions: 10 µM single dose, HOP-92, NSC lung cancer
Protocol: as §1, §2, §3

UACC-62 = experiment: NCI single (10 µM) dose SRB screening, UACC-62; format: cell-based, human; conditions: 10 µM single dose, UACC-62, Melanoma
Protocol: as §1, §2, §3

K-562 [2] = experiment: NCI single (10 µM) dose SRB screening, K-562; format: cell-based, human; conditions: 10 µM single dose, K-562, Leukaemia
Protocol: as §1, §2, §3

SNB-19 = experiment: NCI single (10 µM) dose SRB screening, SNB-19; format: cell-based, human; conditions: 10 µM single dose, SNB-19, CNS cancer
Protocol: as §1, §2, §3

HOP-92 [3] = experiment: NCI five dose assay, HOP-92; format: cell-based, human; conditions: HOP-92, NSC lung cancer
Protocol: (§4) MPC 5l was then chosen for additional biological evaluation in a five-dose (0.01–100 µM) experiment. MPC 5l's GI50, TGI, and LC50 response parameters were obtained for each of the cancer cell lines studied. TGI represents cytostatic impact, whereas GI50 values reflect the extent of growth inhibitory effect. Furthermore, the LC50 parameter is regarded as the cytotoxicity parameter for the hybrid under investigation.
as §3

RPMI-8226 = experiment: NCI five dose assay, RPMI-8226; format: cell-based, human; conditions: RPMI-8226, Leukaemia
Protocol: as §4, §3

HCT-116 = experiment: NCI five dose assay, HCT-116; format: cell-based, human; conditions: HCT-116, Colon cancer
Protocol: as §4, §3

SR = experiment: NCI five dose assay, SR; format: cell-based, human; conditions: Leukaemia
Protocol: as §4, §3

SW-620 = experiment: NCI five dose assay, SW-620; format: cell-based, human; conditions: SW-620, Colon cancer
Protocol: as §4, §3

LOX IMVI = experiment: NCI five dose assay, LOX IMVI; format: cell-based, human; conditions: Melanoma
Protocol: as §4, §3

U251 = experiment: NCI five dose assay, U251; format: cell-based, human
Protocol: as §4, §3

K-562 [4] = experiment: NCI five dose assay, K-562; format: cell-based, human
Protocol: as §4, §3

MCF7 = experiment: NCI five dose assay, MCF7; format: cell-based, human; conditions: MCF7, Breast cancer
Protocol: as §4, §3

[5] = tested on: fifty-nine cancer cell lines; experiment: full NCI panel five dose assay, whole panel; format: cell-based; conditions: five-dose (0.01–100 µM)
Protocol: as §4, §3

[6] = Homo sapiens, read-out: IC50 (the source's name)

## Cc1nc(-c2cc3ccccc3oc2=O)ccc1C(=O)/C=C/c1ccc(N2CCOCC2)cc1 [Compound 5g, 3-(6-Methyl-5-[(2E)-3-[4-(morpholin-4-yl)phenyl]prop-2-enoyl]pyridin-2-yl)-2H-chromen-2-one]
OVCAR-5
  GI %: – (Only GI % more than 20% are displayed.)
hCA XII
  Selectivity index (SI) (KI off-target CA/KI target CA) Towards hCA XII: >55.56
  Ki: 1.8 µM
HOP-92 [1]
  GI %: – (Only GI % more than 20% are displayed.)
UACC-62
  GI %: 47%
K-562 [2]
  GI %: 62%

## Cc1nc(-c2cc3ccccc3oc2=O)ccc1C(=O)/C=C/c1ccccn1 [Compound 5l, 3-(6-Methyl-5-[(2E)-3-(pyridin-2-yl)prop-2-enoyl]pyridin-2-yl)-2H-chromen-2-one]
SNB-19
  GI %: 28%
HOP-92 [3]
  TGI: >100 µM
HOP-92 [3]; Homo sapiens
  GI50: 7.25 µM
HOP-92 [3]; [6]
  LC50: > 100 µM
OVCAR-5
  GI %: 39%
RPMI-8226; Homo sapiens
  GI50: 3.41 µM
RPMI-8226; [6]
  LC50: > 100 µM
RPMI-8226
  TGI: >100 µM
hCA XII
  Selectivity index (SI) (KI off-target CA/KI target CA) Towards hCA XII: >108.70
  Ki: 0.92 µM
HCT-116
  TGI: >100 µM
HCT-116; Homo sapiens
  GI50: 6.34 µM
HCT-116; [6]
  LC50: > 100 µM
HOP-92 [1]
  GI %: – (Only GI % more than 20% are displayed.)
SR; Homo sapiens
  GI50: 5.3 µM
SR; [6]
  LC50: > 100 µM
SR
  TGI: >100 µM
SW-620; Homo sapiens
  GI50: 6.77 µM
SW-620; [6]
  LC50: > 100 µM
SW-620
  TGI: >100 µM
LOX IMVI; Homo sapiens
  GI50: 3.2 µM
LOX IMVI; [6]
  LC50: > 100 µM
LOX IMVI
  TGI: >100 µM
UACC-62
  GI %: 28%
U251; Homo sapiens, U-251, U251, CNS cancer
  GI50: 8.49 µM
U251; Homo sapiens, U-251, U251, CNS cancer, read-out: IC50 (the source's name)
  LC50: > 100 µM
U251; U251, CNS cancer
  TGI: >100 µM
K-562 [2]
  GI %: 92%
K-562 [4]; Homo sapiens, K562, K-562, Leukaemia
  GI50: 6.47 µM
K-562 [4]; Homo sapiens, K562, K-562, Leukaemia, read-out: IC50 (the source's name)
  LC50: > 100 µM
K-562 [4]; K-562, Leukaemia
  TGI: >100 µM
MCF7; Homo sapiens
  GI50: 3.72 µM
MCF7; [6]
  LC50: > 100 µM
MCF7
  TGI: >100 µM
[5]; Homo sapiens, all cancer cells, read-out: LC50 (the source's name)
  CC50: > 100 µM
[5]; Homo sapiens, remaining cancer cells (other than the nine of Table 4)
  GI50: > 100 µM
[5]; all cancer cell lines
  TGI: > 100 µM
